These are literature values, as cited in patent US20040259899A1, “Combination therapy for constipation” (priority 2003, published 2004).

For this data set the following is noted: white crystalline powder as provided (Mallinckrodt Pharmaceuticals).

With `C[N@+]1(CC2CC2)CC[C@]23c4c5ccc(O)c4O[C@H]2C(=O)CC[C@@]3(O)[C@H]1C5` [Methylnaltrexone, N-cyclopropylmethylnoroxy-morphine-methobromide], the solubility in water result is “freely soluble”.
